Laboratory results: article PMC4992173, “Divergent synthesis and identification of the cellular targets of deoxyelephantopins” (Nature Communications, 2016)
pIC50: −log10 of the molar value.

Key:
Type in all cases: binding
PPARγ D174A = biological target: T1, PPARγ D174A (Homo sapiens, UniProt P37231, D174A); experiment: Gel-based competitive IC50 determination in 293T lysates: D174A PPARγ; settings: D174A PPARγ expressed in 293T cells, lysate, 1 h, then 10 μM 24c-Cy3
T1 construct: host or cells: 293T
T1 sequence (P37231 whole entry D174A): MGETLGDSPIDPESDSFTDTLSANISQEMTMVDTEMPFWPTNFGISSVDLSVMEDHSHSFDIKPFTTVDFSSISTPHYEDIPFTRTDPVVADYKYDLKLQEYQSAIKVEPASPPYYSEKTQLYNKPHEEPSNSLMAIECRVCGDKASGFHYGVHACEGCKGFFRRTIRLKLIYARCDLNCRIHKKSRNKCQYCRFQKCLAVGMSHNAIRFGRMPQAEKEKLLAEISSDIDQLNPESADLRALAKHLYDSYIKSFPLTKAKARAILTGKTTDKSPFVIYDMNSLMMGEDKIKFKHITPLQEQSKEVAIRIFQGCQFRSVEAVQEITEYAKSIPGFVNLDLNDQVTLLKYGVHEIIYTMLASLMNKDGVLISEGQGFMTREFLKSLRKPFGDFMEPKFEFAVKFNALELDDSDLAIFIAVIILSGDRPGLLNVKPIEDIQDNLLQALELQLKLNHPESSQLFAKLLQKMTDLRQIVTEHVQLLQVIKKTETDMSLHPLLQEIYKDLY
Excerpt: (§1) Finally, we sought to understand the molecular basis for PPARγ binding by the synthetic analogues of deoxyelephantopin through identification of the precise covalently modified amino acid site. There is literature precedent for oxidized fatty acids containing an α,β-unsaturated ketone to form a covalent bond with a cysteine in the ligand-binding site of PPARγ[53]. More recently, synthetic ligands binding reversibly to a distinct site were identified. […] Bearing in mind that the structurally simplified, and thus less prone to MS/MS fragmentation, probe 23c binds PPARγ as efficiently as 24c (Supplementary Fig. 13), we treated the recombinant nuclear receptor with the former compound, digested the protein and analysed the resulting peptides by LC–MS/MS. […]
(§2) Supplementary figure 21: Top: Fluorescence gels corresponding to the IC50 curves presented in the main text Figure 8b. γ fluorescence signal in percentage after 19a treatment. […]
(§3) Biological materials. […] Protein concentration was determined using the Bradford assay (Bio-Rad).
(§4) Cell culture and preparation of lysates. […] Cells were lysed by sonication to form cell lysates and protein concentration was determined using the Bradford […]

PPARγ C176A = biological target: T2, PPARγ C176A (Homo sapiens, UniProt P37231, C176A); experiment: Gel-based competitive IC50 determination in 293T lysates: C176A PPARγ; settings: C176A PPARγ expressed in 293T cells, lysate, 1 h, then 10 μM 24c-Cy3
T2 construct: host or cells: 293T
T2 sequence (P37231 whole entry C176A): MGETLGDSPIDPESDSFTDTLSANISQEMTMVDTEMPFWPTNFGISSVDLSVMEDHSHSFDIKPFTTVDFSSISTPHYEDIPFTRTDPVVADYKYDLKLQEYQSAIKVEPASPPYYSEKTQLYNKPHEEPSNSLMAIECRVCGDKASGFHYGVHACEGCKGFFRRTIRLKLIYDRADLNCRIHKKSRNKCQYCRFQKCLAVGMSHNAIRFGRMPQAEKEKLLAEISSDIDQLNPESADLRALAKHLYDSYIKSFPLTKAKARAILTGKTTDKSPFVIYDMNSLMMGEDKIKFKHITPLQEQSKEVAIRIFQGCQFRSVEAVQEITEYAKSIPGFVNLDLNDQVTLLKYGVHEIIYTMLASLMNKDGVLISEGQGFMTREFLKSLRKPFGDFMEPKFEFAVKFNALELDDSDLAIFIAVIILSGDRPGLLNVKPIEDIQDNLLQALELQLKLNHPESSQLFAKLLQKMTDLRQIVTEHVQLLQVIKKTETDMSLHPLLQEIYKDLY
Excerpt: as §1, §2, §3, §4

PPARγ = biological target: T3, PPARγ (Homo sapiens, UniProt P37231); experiment: Detection of a covalent adduct on human PPARγ (LC-MS/MS); design: purchased Cayman Chemical; settings: 100 μM, 1 h, tryptic digest LC-MS/MS
T3 sequence (P37231 1-505): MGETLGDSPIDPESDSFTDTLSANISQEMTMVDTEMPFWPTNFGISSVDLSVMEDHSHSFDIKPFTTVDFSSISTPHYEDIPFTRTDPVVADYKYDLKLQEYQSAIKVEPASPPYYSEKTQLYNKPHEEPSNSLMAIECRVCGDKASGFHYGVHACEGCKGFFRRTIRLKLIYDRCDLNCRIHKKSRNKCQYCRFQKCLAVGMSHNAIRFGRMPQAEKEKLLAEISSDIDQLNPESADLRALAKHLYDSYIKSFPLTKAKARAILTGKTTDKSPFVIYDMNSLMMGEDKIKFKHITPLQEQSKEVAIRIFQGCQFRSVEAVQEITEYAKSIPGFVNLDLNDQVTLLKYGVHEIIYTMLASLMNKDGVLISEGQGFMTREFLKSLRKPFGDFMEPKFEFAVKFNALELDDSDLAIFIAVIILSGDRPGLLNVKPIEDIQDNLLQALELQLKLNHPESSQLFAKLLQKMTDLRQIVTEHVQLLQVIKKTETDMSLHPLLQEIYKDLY
Excerpt: as §1
Recombinant human PPARγ (500 ng in 9 μl PBS) was treated with 100 μM of 23c (1 μl of 10 × stock in DMSO) or DMSO for 1 h. […] Samples were resuspended in 0.1% FA in water and analysed by LC–MS/MS. The theoretical mass of the 23c adduct was calculated and LC–MS/MS was run with an inclusion list containing m/z and charge of the expected peptides. MS data were analysed in MaxQuant with 23c (+256.1099 Da) and carbamidomethylation as variable modifications on cysteine. […]

SMILES | pIC50 (PPARγ D174A) | pIC50 (PPARγ C176A) | protein site covalently modified (PPARγ)
C=C(C)C(=O)O[C@H]1CC2=C[C@H](C/C=C\[C@H]3OC(=O)C(=C)[C@H]13)OC2=O [19a] | 4.24 | 4.48 | –
C#CCC[C@H](O)[C@H]1C(=C)C(=O)O[C@@H]1c1ccccc1 [23c] | – | – | Cys190
